# According to patent publication US20260364068A1, “ANTIVIRAL USE OF HETEROARYL DERIVATIVE COMPOUND” (UIF (University Industry Foundation), Yonsei University, priority 2022, published 2026):
# Where two headings read alike, the source gives them in different places.
# Columns and labels:
# Assay type in all cases: cell-based
# [1] = Cell viability measurement (MTS), Calu-3 cells; details: human
# Description: (§1) Experimental Example 3: Cell Viability Measurement
# (§2) Vero cell line (VERO01WCB-1201, Ministry of Food and Drug Safety, Republic of Korea), Calu-3 cell line (KCLB #30055, Korea Cell Line Bank (KCLB), Republic of Korea), CellTiter 96® AQueous One Solution Cell Proliferation Assay kit (Promega, cat. #G3582), and Infinite M200 microplate reader (Tecan).
# Calu-3 cells were cultured at 37 °C and 5% CO2 in MEM medium supplemented with 10% fetal bovine serum, 2.2 g/L sodium bicarbonate, 1% 100 units/mL penicillin, and 100 μg/mL streptomycin.
# (§3) Vero cells or Calu-3 cells were seeded in 96-well microplates and cultured for 24 hours until the cell confluency reached 20%. After the incubation, compounds were treated in DMSO at concentrations (1, 3, and 10 μM) to reach 0.5% v/v in each well, and reacted at 37 °C for 48 hours. Into each well of the incubated 96-well microplate, 3-(4,5-dimethylthiazol-2-yl)-5-(3-carboxymethoxyphenyl)-2-(4-sulfophenyl)-2H-tetrazolium salt (MTS) assay solution [CellTiter 96® AQueous One Solution Cell Proliferation Assay kit (Promega)] mixed with DMEM medium at a ratio of 1:5, was dispensed at 100 μL/well and incubated at 37 °C for 1 hour. The 490 nm and 690 nm absorbance was then measured using an Infinite M200 instrument.
# (§4) The cell viability (also, referred to as cell survival rate) (%) by compound treatment was calculated using the following analysis method. The 690 nm background absorbance value was subtracted from the measured 490 nm absorbance value. Then, to obtain the cell viability of each test group, the viability of the DMSO-treated group that was not treated with the compound was set to 100% and then the relative viability 1 of each compound was calculated. Two to six repeated tests were performed to obtain the results, and the mean values of the results were categorized into the following ranges and shown in Table 5 below (A: 80% survived, B: 50-80% survived, N/A: not tested)
# [2] = tested on: Severe Acute Respiratory Syndrome Coronavirus Type 2; test: microbe, parasite or virus in culture; details: Vero, read-out: Virus replication inhibition efficacy
# [3] = Cell viability measurement (MTS), Vero cells; details: monkey
# Description: as §1, §2
# Vero cells were cultured at 37 °C and 5% CO2 in DMEM medium supplemented with 10% fetal bovine serum, 100 units/mL penicillin, and 100 μg/mL streptomycin.
# as §3, §4
# [4] = tested on: Severe Acute Respiratory Syndrome Coronavirus Type 2; test: microbe, parasite or virus in culture; details: read-out: Virus replication inhibition efficacy
# [5] = 10 uM, virus strain NCCP-43388, 48 hours
# [6] = Calu-3, 10 uM, virus strain NCCP-43388, 48 hours
# [7] = 10 uM, virus strain NCCP-43344, 48 hours
# [8] = Calu-3, 10 uM, virus strain NCCP-43344, 48 hours
SMILES,"viability at 48 h, 1 µM [1] [%]","inhibition at 10 µM [2, 5] [%]","viability at 48 h, 1 µM [3] [%]","viability at 48 h, 3 µM [3] [%]","viability at 48 h, 10 µM [3] [%]","inhibition at 10 µM [4, 6] [%]","inhibition at 10 µM [2, 7] [%]","inhibition at 10 µM [4, 8] [%]","viability at 48 h, 3 µM [1] [%]","viability at 48 h, 10 µM [1] [%]",inhibition at 10 µM ([2]; 48 h) [%],"inhibition at 10 µM ([4]; Calu-3, 48 h) [%]"
"c1ccc(-c2ccc(Nc3cccc(-c4nc5ccccc5[nH]4)c3)nn2)cc1 [Example 2, N-(3-(1H-benzo[d]imidazol-2-yl)phenyl)-6-phenylpyridazin-3-amine]",50 to 80,> 60,> 80,> 80,50 to 80,> 60,–,–,–,–,–,–
"Clc1cc2nc(-c3cccc(Nc4ccc(-c5ccccc5)nn4)c3)[nH]c2cc1Cl [Example 7, N-(3-(5,6-dichloro-1H-benzo[d]imidazol-2-yl)phenyl)-6-phenylpyridazin-3-amine]",–,–,> 80,> 80,–,–,30 to 60,30 to 60,–,–,–,–
"FC(F)(F)c1cc2nc(-c3cccc(Nc4ccc(-c5ccccc5)nn4)c3)[nH]c2cc1Cl [Example 8, N-{3-[6-chloro-5-(trifluoromethyl)-1H-benzo[d]imidazol-2-yl]phenyl}-6-phenylpyridazin-3-amine]",–,–,> 80,> 80,–,–,30 to 60,30 to 60,–,–,–,–
"c1ccc(-c2ccc(Nc3cccc(-c4nc5ccccc5[nH]4)c3)cc2)nc1 [Example 20, 3-(1H-benzo[d]imidazol-2-yl)-N-(4-(pyridin-2-yl)phenyl)aniline]",> 80,> 60,> 80,–,50 to 80,> 60,–,–,50 to 80,–,–,–
"c1cc(Nc2ccc(-c3cccnn3)cc2)cc(-c2nc3ccccc3[nH]2)c1 [Example 21, 3-(1H-benzo[d]imidazol-2-yl)-N-(4-(pyridazin-3-yl)phenyl)aniline]",> 80,> 60,–,> 80,50 to 80,> 60,–,–,50 to 80,50 to 80,–,–
"c1cc(Nc2ccc(-c3ccncn3)cc2)cc(-c2nc3ccccc3[nH]2)c1 [Example 22, N-[3-(1H-benzo[d]imidazol-2-yl)phenyl]-4-(pyrimidin-4-yl)aniline]",> 80,–,> 80,> 80,50 to 80,–,> 60,> 60,–,–,–,–
"FC(F)(F)c1ccc2nc(-c3cccc(Nc4ccc(-c5cccnn5)cc4)c3)[nH]c2c1 [Example 23, N-(4-(pyridazin-3-yl)phenyl)-3-(6-(trifluoromethyl)-1H-benzo[d]imidazol-2-yl)aniline]",> 80,–,> 80,> 80,–,–,> 60,> 60,50 to 80,–,–,–
"FC(F)(F)c1ccc2nc(-c3cccc(Nc4ccc(-c5ccncn5)cc4)c3)[nH]c2c1 [Example 24, N-(4-(pyrimidin-4-yl)phenyl)-3-(6-(trifluoromethyl)-1H-benzo[d]imidazol-2-yl)aniline]",> 80,–,> 80,> 80,–,–,> 60,> 60,–,–,–,–
"c1cnc(-c2ccc(Nc3cccc(-c4nc5ccccc5[nH]4)c3)cc2)nc1 [Example 26, N-[3-(1H-benzo[d]imidazol-2-yl)phenyl]-4-(pyrimidin-2-yl)aniline]",> 80,–,> 80,–,> 80,–,> 60,> 60,50 to 80,–,–,–
"FC(F)(F)c1ccc2nc(-c3cccc(Nc4ccc(-c5ncccn5)cc4)c3)[nH]c2c1 [Example 27, N-[4-(pyrimidin-2-yl)phenyl]-3-[6-(trifluoromethyl)-1H-benzo[d]imidazol-2-yl]aniline]",–,> 60,> 80,> 80,–,> 60,–,–,–,–,–,–
"FC(F)(F)c1ccc2nc(-c3cccc(Nc4ccc(-c5cncnc5)cc4)c3)[nH]c2c1 [Example 28, N-[4-(pyrimidin-5-yl)phenyl]-3-[6-(trifluoromethyl)-1H-benzo[d]imidazol-2-yl]aniline]",–,> 60,> 80,–,–,> 60,–,–,–,–,–,–
"FC(F)(F)c1ccc2nc(-c3cccc(Nc4ncc(-c5ccccn5)cn4)c3)[nH]c2c1 [Example 83, 5-(2-pyridyl)-N-[3-[6-(trifluoromethyl)-1H-benzo[d]imidazol-2-yl]phenyl]pyrimidin-2-amine]",> 80,30 to 60,–,–,–,30 to 60,–,–,> 80,> 80,–,–
"Cc1noc(-c2ccc3nc(-c4cccc(Nc5ccc(-c6cccnn6)cc5)c4)[nH]c3c2)n1 [Example 93, 3-(6-(3-methyl-1,2,4-oxadiazol-5-yl)-1H-benzo[d]imidazol-2-yl)-N-(4-(pyridazin-3-yl)phenyl)aniline]",> 80,30 to 60,–,–,–,> 60,–,–,> 80,> 80,–,–
"Fc1cc2[nH]c(-c3cccc(Nc4ccc(-c5cccnn5)cc4)c3)nc2cc1Cl [Example 102, 3-(5-chloro-6-fluoro-1H-benzo[d]imidazol-2-yl)-N-(4-pyridazin-3-ylphenyl)aniline]",> 80,> 60,–,–,–,> 60,–,–,> 80,50 to 80,–,–
"Cc1ccc2nc(-c3cccc(Nc4ccc(-c5cccnn5)cc4)c3)[nH]c2c1 [Example 105, 3-(6-methyl-1H-benzo[d]imidazol-2-yl)-N-(4-pyridazin-3-ylphenyl)aniline]",> 80,> 60,–,–,–,> 60,–,–,50 to 80,50 to 80,–,–
"Clc1ccc2nc(-c3cccc(Nc4ccc(-c5cccnn5)cc4)c3)[nH]c2c1 [Example 226, 3-(6-chloro-1H-benzo[d]imidazol-2-yl)-N-(4-(pyridazin-3-yl)phenyl)aniline]",–,> 60,–,–,–,> 60,–,–,–,–,–,–
"O=[N+]([O-])c1ccc2nc(-c3cccc(Nc4ccc(-c5cccnn5)cc4)c3)[nH]c2c1 [Example 227, 3-(6-nitro-1H-benzo[d]imidazol-2-yl)-N-(4-(pyridazin-3-yl)phenyl)aniline]",–,30 to 60,–,–,–,> 60,–,–,–,–,–,–
"N#Cc1ccc2nc(-c3cccc(Nc4ccc(-c5cccnn5)cc4)c3)[nH]c2c1 [Example 231, 2-(3-((4-(pyridazin-3-yl)phenyl)amino)phenyl)-1H-benzo[d]imidazole-6-carbonitrile]",–,> 60,–,–,–,> 60,–,–,–,–,–,–
"FC(F)(F)Oc1cc2[nH]c(-c3cccc(Nc4ccc(-c5cccnn5)cc4)c3)nc2cn1 [Example 232, N-(4-(pyridazin-3-yl)phenyl)-3-(6-(trifluoromethoxy)-1H-imidazo[4,5-c]pyridin-2-yl)aniline]",–,–,–,–,–,–,–,–,–,–,30 to 60,> 60
"Fc1cccc(-c2cnc(Nc3cccc(-c4nc5ccccc5[nH]4)c3)nc2)n1 [Example 259, N-(3-(1H-benzo[d]imidazol-2-yl)phenyl)-5-(6-fluoropyridin-2-yl)pyrimidin-2-amine]",–,> 60,–,–,–,> 60,–,–,–,–,–,–
